In patent publication US6358921B1, “Antimicrobial peptide compositions and method” (priority 1996, dated 2002):

Experiments:
[1] = Displacement of dansyl-polymyxin from LPS; type: binding, P. aeruginosa; conditions: read-out: LPS binding affinity: peptide concentration to displace 50% of dansyl-polymyxin B from LPS; Tables 1, 4, 7
Excerpt: In order to determine whether ring size affects the interaction between the peptide and bacterial membranes, we studied the interaction between the GS ring analogs and bacterial lipopolysaccharide (LPS). It has been shown previously that dansyl-polymixin (DPX) is a good probe for cationic binding sites on both purified LPS as well as whole bacterial cells (Example 8; Moore, et al., 1986; Sawyer, et al., 1988; Hancock, 1981). […] The LPS binding activity of various GS analogs was investigated, as discussed above.
Dansyl-polymixin (DPX) displacement from P. aeruginosa LPS was measured as described (Moore, et al., 1986). Briefly, peptides were titrated into cuvettes containing 3 μg of LPS per mL and 2.5 μM dansyl-polymixin (approximately 90% saturation of LPS binding sites) in 1 mL of 5 mM sodium HEPES buffer, pH 7.0, and the decrease in fluorescence recorded. A plot of the inverse of the percent inhibition as a function of the inverse of inhibitor concentration gave a value for I50, the inhibitor concentration resulting in 50% displacement of dansyl-polymixin from LPS (−1/× intercept).

C. Albicans = type: cell-based, Candida albicans
Excerpt: (§1) The following bacterial strains were utilized: Escherichia coli UB1005 (wt) and its antibiotic supersusceptible derivative DC2 (Clark, 1984); Excherichia coli SC9251 and its polymixin B rasistant mutant pmrA SC9252 (Peterson, et al., 1987) Pseudomonas aeruginosa H187 (wt) (Angus, et al., 1987) and its antibiotic-sensitive derivative H188 (Zimmerman, W, Antimicrob. Agents Chemother. 18: 94-100, 1980); methicillin sensitive Staphylococcus aureus K147 (Kreiswirth, et al., 1983); Staphylococcus aureus SAP0017, a methicillin resistant clinical isolate from Dr. A. Chow (University of British Columia); Bacillus subtilis, an environmental wt lab strain. Enterococcus faecalis are ATCC 29212 cells and Staphylococcus epidermidis was a clinical isolate from Dr. D. Speert (University of British Columbia). Antifungal activity was tested using a clinical lab isolate of Candida albicans. Salmonella typhinurium C57 and C610 (Fields, P.I., et al., Science 243: 1059-1062 (1989) Corynebacterium xerosis was an environmental isolate (University of British Columbia).
(§2) It is now apparent that agar-based assays severely underestimate antifungal activity as well as activity against gram negative microorganisms (Kondejewski, et al., 1996). Consequently, in the studies reported herein, a liquid-broth method was used to measure the antibiotic properties of the peptides. […] Briefly, cells were grown overnight at 37° C. in LB and diluted in the same medium. Serial dilutions of antibiotics were added to the microtitre plates in a volume of 100 μL followed by 10 μL of bacteria to give a final inoculum of 5×10^5 CFU/mL. Plates were incubated at 37° C. overnight and MICs determined as the lowest antibiotic concentration that inhibited growth. […]

S. aureus K147 = type: cell-based, Staphylococcus aureus
Excerpt: as §1
(§3) It is now apparent that agar-based assays severely underestimate antifungal activity as well as activity against gram negative microorganisms (Kondejewski, et al., 1996). Consequently, in the studies reported herein, a liquid-broth method was used to measure the antibiotic properties of the peptides. […] Briefly, cells were grown overnight at 37° C. in LB and diluted in the same medium. Serial dilutions of antibiotics were added to the microtitre plates in a volume of 100 μL followed by 10 μL of bacteria to give a final inoculum of 5×10^5 CFU/mL. Plates were incubated at 37° C. overnight and MICs determined as the lowest antibiotic concentration that inhibited growth.
(§4) The results from antimicrobial and hemolytic assays are combined to provide a “Therapeutic Index” (TI) for each peptide with respect to individual microorganisms. As reported herein, the TI is calculated as the hemolytic activity divided by the antimicrobial activity. The TI thus is a measure of specificity of the particular peptide for microbial membranes as opposed to human blood cell membranes. In the present studies, antimicrobial activities are reported as minimum inhibitory concentrations (MIC)—the lowest concentration of peptide (μg/ml) found to inhibit growth of the particular microbe. Hemolytic activity is reported as the concentration of peptide that effected complete lysis of blood cells after four hours. Thus, in the context of the present invention high TI values indicate microbial specificity and relative lack of toxicity.

S. aureus SAP0017 = type: cell-based, Staphylococcus aureus
Excerpt: as §1, §3, §4

S. epidermidis = type: cell-based, Staphylococcus epidermidis
Excerpt: as §1, §2

B. subtilis = type: cell-based, Bacillus subtilis
Excerpt: as §1, §2

E. coli UB1005 = type: cell-based, Escherichia coli; conditions: UB1005
Excerpt: as §1, §2

C. xeroses = type: cell-based, Corynebacterium xerosis
Excerpt: as §1, §2

P. aeruginosa H188 = type: cell-based, Pseudomonas aeruginosa; conditions: H188
Excerpt: as §1, §2

E. coli DC2 = type: cell-based, Escherichia coli; conditions: DC2
Excerpt: as §1, §3, §4

P. aeruginosa H187 = type: cell-based, Pseudomonas aeruginosa; conditions: H187
Excerpt: as §1, §3, §4

E. faecalis = type: cell-based, Enterococcus faecalis
Excerpt: as §1, §2

S. typhinurium C587 = type: cell-based, Salmonella typhinurium
Excerpt: as §1, §2

S. typhinurium C610 = type: cell-based, Salmonella typhinurium
Excerpt: as §1, §2

Row | SMILES | IC50 [1] | Minimum Inhibitory Concentration (activity) (C. Albicans) | Minimum Inhibitory Concentration (activity) (S. aureus K147) | Minimum Inhibitory Concentration (activity) (S. aureus SAP0017) | Minimum Inhibitory Concentration (activity) (S. epidermidis) | Minimum Inhibitory Concentration (activity) (B. subtilis) | Minimum Inhibitory Concentration (activity) (E. coli UB1005) | Minimum Inhibitory Concentration (activity) (C. xeroses) | Minimum Inhibitory Concentration (activity) (P. aeruginosa H188) | Minimum Inhibitory Concentration (activity) (E. coli DC2) | Minimum Inhibitory Concentration (activity) (P. aeruginosa H187) | Minimum Inhibitory Concentration (activity) (E. faecalis) | Minimum Inhibitory Concentration (activity) (S. typhinurium C587) | Minimum Inhibitory Concentration (activity) (S. typhinurium C610)
1 | CC(C)C[C@@H]1NC(=O)[C@H](CCCCN)NC(=O)[C@@H](C(C)C)NC(=O)[C@@H]2CCCN2C(=O)[C@@H](Cc2ccc(O)cc2)NC(=O)[C@H](CC(C)C)NC(=O)[C@H](CCCCN)NC(=O)[C@H](C(C)C)NC(=O)[C@H](CCCCN)NC(=O)[C@H](CC(C)C)NC(=O)[C@@H]2CCCN2C(=O)[C@@H](Cc2ccc(O)cc2)NC(=O)[C@H](C(C)C)NC(=O)[C@H](CCCCN)NC1=O [GS14V1] | 41 µM | 5 µg/mL | 100 µg/mL | 50 µg/mL | 3.1 µg/mL | 50 µg/mL | 6.2 µg/mL | 1.5 µg/mL | 3.1 µg/mL | 3.1 µg/mL | 60 µg/mL | 1.5 µg/mL | 50 µg/mL | 6.2 µg/mL
2 | CC(C)C[C@@H]1NC(=O)[C@H](CCCCN)NC(=O)[C@H](C(C)C)NC(=O)[C@H](CCCCN)NC(=O)[C@H](CC(C)C)NC(=O)[C@@H]2CCCN2C(=O)[C@@H](Cc2ccc(O)cc2)NC(=O)[C@H](C(C)C)NC(=O)[C@@H](CCCCN)NC(=O)[C@H](CC(C)C)NC(=O)[C@@H](CCCCN)NC(=O)[C@H](C(C)C)NC(=O)[C@@H]2CCCN2C(=O)[C@@H](Cc2ccc(O)cc2)NC1=O [GS14K2K4] | 120 µM | 200 µg/mL | >200 µg/mL | >200 µg/mL | 100 µg/mL | >200 µg/mL | 50 µg/mL | 9 µg/mL | – | 6.2 µg/mL | 150 µg/mL | >200 µg/mL | 200 µg/mL | 25 µg/mL
3 | CC(C)C[C@@H]1NC(=O)[C@@H](CCCCN)NC(=O)[C@H](C(C)C)NC(=O)[C@@H](CCCCN)NC(=O)[C@H](CC(C)C)NC(=O)[C@@H]2CCCN2C(=O)[C@@H](Cc2ccc(O)cc2)NC(=O)[C@H](C(C)C)NC(=O)[C@@H](CCCCN)NC(=O)[C@H](CC(C)C)NC(=O)[C@@H](CCCCN)NC(=O)[C@H](C(C)C)NC(=O)[C@@H]2CCCN2C(=O)[C@@H](Cc2ccc(O)cc2)NC1=O [GS14K2K4K9K11] | 200 µM | >200 µg/mL | >200 µg/mL | >200 µg/mL | >200 µg/mL | >200 µg/mL | 100 µg/mL | 25 µg/mL | – | 50 µg/mL | >200 µg/mL | >200 µg/mL | >200 µg/mL | 25 µg/mL
4 | CC(C)C[C@@H]1NC(=O)[C@H](CCCCN)NC(=O)[C@H](C(C)C)NC(=O)[C@@H]2CCCN2C(=O)[C@@H](Cc2ccc(O)cc2)NC(=O)[C@@H](CC(C)C)NC(=O)[C@H](CCCCN)NC(=O)[C@H](C(C)C)NC(=O)[C@H](CCCCN)NC(=O)[C@H](CC(C)C)NC(=O)[C@@H]2CCCN2C(=O)[C@@H](Cc2ccc(O)cc2)NC(=O)[C@H](C(C)C)NC(=O)[C@H](CCCCN)NC1=O [GS14L12] | 32 µM | 9 µg/mL | 100 µg/mL | 50 µg/mL | 3.1 µg/mL | 200 µg/mL | 17 µg/mL | 3.1 µg/mL | – | 3.1 µg/mL | 200 µg/mL | 0.8 µg/mL | 150 µg/mL | 50 µg/mL
5 | CC(C)C[C@@H]1NC(=O)[C@H](CCCCN)NC(=O)[C@H](C(C)C)NC(=O)[C@@H]2CCCN2C(=O)[C@@H](Cc2ccc(O)cc2)NC(=O)[C@H](CC(C)C)NC(=O)[C@H](CCCCN)NC(=O)[C@H](C(C)C)NC(=O)[C@@H](CCCCN)NC(=O)[C@H](CC(C)C)NC(=O)[C@@H]2CCCN2C(=O)[C@@H](Cc2ccc(O)cc2)NC(=O)[C@H](C(C)C)NC(=O)[C@H](CCCCN)NC1=O [GS14K9] | 60 µM | 6.2 µg/mL | 50 µg/mL | 25 µg/mL | 6.2 µg/mL | 25 µg/mL | – | 1.5 µg/mL | 62 µg/mL | 3.1 µg/mL | 50 µg/mL | 1.5 µg/mL | 17 µg/mL | 6.2 µg/mL
6 | CC(C)C[C@@H]1NC(=O)[C@H](CCCCN)NC(=O)[C@H](C(C)C)NC(=O)[C@H](CCCCN)NC(=O)[C@H](CC(C)C)NC(=O)[C@@H]2CCCN2C(=O)[C@@H](Cc2ccc(O)cc2)NC(=O)[C@H](C(C)C)NC(=O)[C@H](CCCCN)NC(=O)[C@H](CC(C)C)NC(=O)[C@@H](CCCCN)NC(=O)[C@H](C(C)C)NC(=O)[C@@H]2CCCN2C(=O)[C@@H](Cc2ccc(O)cc2)NC1=O [GS14K2] | 50 µM | 6.2 µg/mL | 100 µg/mL | 50 µg/mL | 6.2 µg/mL | 50 µg/mL | – | 0.8 µg/mL | 62 µg/mL | 3.1 µg/mL | 75 µg/mL | 1.5 µg/mL | 25 µg/mL | 3 µg/mL
